Measurements reported in publication PMC3010111 (Molecular Systems Biology, 2010).

Molecular target: T1, AroB (dehydroquinate synthase) (Escherichia coli, UniProt P07639)
T1 sequence (P07639 1-362): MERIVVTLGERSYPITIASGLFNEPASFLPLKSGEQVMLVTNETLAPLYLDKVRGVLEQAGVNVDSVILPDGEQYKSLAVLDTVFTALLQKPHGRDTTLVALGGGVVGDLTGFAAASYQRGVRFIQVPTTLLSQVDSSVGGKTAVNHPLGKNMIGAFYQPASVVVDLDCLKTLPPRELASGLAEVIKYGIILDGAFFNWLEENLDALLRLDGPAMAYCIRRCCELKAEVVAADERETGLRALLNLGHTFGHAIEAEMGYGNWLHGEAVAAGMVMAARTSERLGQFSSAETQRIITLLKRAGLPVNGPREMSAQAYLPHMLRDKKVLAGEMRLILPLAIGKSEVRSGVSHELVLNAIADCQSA
Test: NAD+ reduction
Type: biochemical
Settings: 2 mM NAD+, 100 mM Tris–HCl pH 7.5, 10°C; 11 μM AroB

For O=C(O)[C@H](O)[C@H](O)COP(=O)(O)O [4PE], the “NAD+ reduction; single turnover (data not shown)” value was “AroB also oxidizes 4PE, but carries out only a single turnover (data not shown)”.
